Laboratory results taken from US6369049B1, “Treatment of mastitis” (Eli Lilly and Company, priority 1998, dated 2002).
Marks after values point to notes of the source that are not given here.

How the values were obtained:
[1] = tested on: Pasteurella multocida 10,102 (bovine); assay: MIC vs. Pasteurella multocida 10,102 (bovine); format: cell-based; conditions: Incubated at 37° C. overnight
Description: (§1) The formula I compounds are also active against certain Gram-negative species. Tables 3 and 3a show the MIC's of Formula I compounds against certain Gram-negative species.

[2] = tested on: S. aureus F1C; assay: MIC vs. S. aureus F1C; format: cell-based, Staphylococcus aureus; design: unit not given beside the values; conditions: Incubated at 37° C. overnight
Description: (§2) Tables 2 and 2a summarize the minimal inhibitory concentrations (MIC's) at which illustrative formula I compounds and cephalothin inhibit certain microorganisms that are associated with mastitis, such as Staphylococcus aureus 10092 (Newbould strain).

[3] = tested on: Streptococcus dysgalactiae; assay: MIC vs. Streptococcus dysgalactiae; format: cell-based; design: unit not given beside the values; conditions: Incubated at 37° C. overnight
Description: as §2

[4] = tested on: S. aureus 174 C; assay: MIC vs. S. aureus 174 C; format: cell-based, Staphylococcus aureus; design: unit not given beside the values; conditions: Incubated at 37° C. overnight
Description: as §2

[5] = tested on: Pasteurella haemolytica 114F (bovine); assay: MIC vs. Pasteurella haemolytica 114F (bovine); format: cell-based; conditions: Incubated at 37° C. overnight
Description: as §1

[6] = tested on: S. aureus ATCC 29213; assay: MIC vs. S. aureus ATCC 29213; format: cell-based, Staphylococcus aureus; design: unit not given beside the values; conditions: Incubated at 37° C. overnight
Description: as §2

[7] = tested on: Pasteurella haemolytica 128K (bovine); assay: MIC vs. Pasteurella haemolytica 128K (bovine); format: cell-based; conditions: for MIC against Pasteurella haemolytica Strain 128K: Table 3a, incubated at 37° overnight
Description: as §1

[8] = tested on: Staphylococcus aureus 10092 (Newbould strain); assay: MIC vs. S. aureus 10092 (Newbould strain); format: cell-based; design: unit not given beside the values; conditions: for MIC vs. S. aureus 10092: Table 2, incubated at 37° C. overnight; for MIC vs. Staphylococcus aureus 10,092: Table 2a
Description: as §2

[9] = tested on: Pasteurella multocida ATCC 12945; assay: MIC vs. Pasteurella multocida ATCC 12945; format: cell-based; conditions: Incubated at 37° C. overnight
Description: as §1

[10] = tested on: Streptococcus uberis 166 L; assay: MIC vs. Streptococcus uberis 166 L; format: cell-based; design: unit not given beside the values; conditions: Incubated at 37° C. overnight
Description: as §2

[11] = tested on: Streptococcus uberis 150 L; assay: MIC vs. Streptococcus uberis 150 L; format: cell-based; design: unit not given beside the values; conditions: Incubated at 37° C. overnight
Description: as §2

[12] = tested on: Pasteurella multocida 1051 (swine); assay: MIC vs. Pasteurella multocida 1051 (swine); format: cell-based; conditions: Incubated at 37° C. overnight
Description: as §1

[13] = tested on: Streptococcus agalactiae 150 B; assay: MIC vs. Streptococcus agalactiae 150 B; format: cell-based; design: unit not given beside the values; conditions: Incubated at 37° C. overnight
Description: as §2

[14] = tested on: Escherichia coli; assay: MIC vs. Escherichia coli; format: cell-based; design: unit not given beside the values; conditions: Incubated at 37° C. overnight
Description: as §1

[15] = tested on: Staphylococcus aureus 10092 (Newbould); assay: Induced Staphylococcus aureus mastitis model in lactating goats; format: in vivo; conditions: S. aureus 10092 challenge, in peanut oil
Description: Sixteen lactating goats were selected based on the absence of Staphylococcus aureus in pre-challenge milk cultures. Maintenance ration was provided to the animals throughout the study. The goats were milked twice each day using a portable goat milker.
Milk samples were collected during the morning milking. One day prior to challenge, milk culture samples were collected from each half of the test animals to determine if there was a pre-existing infection. Additionally, a sample was collected from each half for Somatic Cell Count (SCC) determination. A milk culture sample and a sample for SCC were collected from each half 24 hours post-challenge and on Days +4 to +6, +8, +11, +13, and +15.
Udder scoring was performed during each milking using the following table:
General health observations and body temperature were recorded once a day following milking during the challenge and treatment periods.
Milk samples were submitted for analysis for SCC using an electronic somatic cell counting system.
Milk culture samples were assayed for bacterial culture by plating 1.0 mL and 0.1 mL of the milk sample directly onto duplicate blood agar plates. Additionally, dilutions […] the milk sample were plated. Plates were incubated overnight at 37° C.
Staphylococcus aureus 10092 (Newbould) was used as the challenge strain. The challenge culture was grown in Tryptic Soy Broth (TSB) from a lyovial stock overnight (16 hours) at 37° C. TSB (100 mL) was inoculated with 1 mL of the overnight culture and incubated at 37° C. with shaking for 4 hours. The culture was centrifuged at 9000 rpm for 10 minutes at 10° C.; supernatant was removed and the pellet was resuspended in phosphate buffered saline (PBS). Optimum O.D. reading at 650 nm was approximately 0.035. A 10-fold dilution series was prepared with saline to determine the CFU/mL, plating 10^−5, 10^−6, and 10^−7 dilutions onto duplicate blood agar plates. The 10^−7 dilution (approximately 10 CFU/mL) was used for the challenge material, yielding a challenge of 50 CFU/half with a 5-mL infusion.
Sixteen goats were used for the trial. During a one day pre-challenge period, milk samples were collected and temperatures were taken during the morning milking. Milk/udder evaluations were documented during the morning and afternoon milkings.
Staphylococcus aureus 10092 was infused into both halves in each of the goats. The goats were challenged following the morning milking and milked in the afternoon on the day of challenge. The challenge inoculum volume was 5 mL/half containing approximately 50 CFU S. aureus.
For the 24 hr post-challenge period milk samples were collected during the morning milking, and milk/udder evaluations made during the morning and afternoon milking.
Treatment was started at 36 hours post-challenge. Milk samples were collected for culture and SCC 24 hours post-challenge, prior to the morning milking, and the treatment period started following the afternoon milking.
Eight halves (4 goats) each were treated for 2 consecutive milkings 12 hours apart, following milking. […]
Following treatment, the goats were milked and observed for 15 days. Milk samples were collected on Days +4 to +6, +8, +11, +13, and +15 to determine if the infection had cleared.
Establishment of mastitis was determined by bacterial culturing, severity of udder scoring, somatic cell count results, and body temperature.
On Days +2 to +6, milk samples were collected for a colorimetric assay to determine whether the antibiotic was still present in the milk.

[16] = tested on: Salmonella typhimurium; assay: MIC vs. Salmonella typhimurium; format: cell-based; conditions: Incubated at 37° C. overnight
Description: as §1

[17] = tested on: Pasteurella haemolytica 129R (bovine); assay: MIC vs. Pasteurella haemolytica 129R (bovine); format: cell-based; conditions: Incubated at 37° C. overnight
Description: as §1

[18] = tested on: Pasteurella multocida 108E (bovine); assay: MIC vs. Pasteurella multocida 108E (bovine); format: cell-based; conditions: Incubated at 37° C. overnight
Description: as §1

[19] = tested on: Staphylococcus aureus 168H; assay: MIC vs. Staphylococcus aureus 168H; format: cell-based; design: unit not given beside the values; conditions: Table 2a
Description: as §2

[20] = tested on: Staphylococcus aureus 170C; assay: MIC vs. Staphylococcus aureus 170C; format: cell-based; design: unit not given beside the values; conditions: Table 2a
Description: as §2

[21] = tested on: Streptococcus agalactiae 150G; assay: MIC vs. Streptococcus agalactiae 150G; format: cell-based; design: unit not given beside the values; conditions: Table 2a
Description: as §2

[22] = tested on: Streptococcus faecalis; assay: MIC vs. Streptococcus faecalis; format: cell-based; design: unit not given beside the values; conditions: Table 2a
Description: as §2

[23] = tested on: Streptococcus dysgalactiae 152B; assay: MIC vs. Streptococcus dysgalactiae 152B; format: cell-based; design: unit not given beside the values; conditions: Table 2a
Description: as §2

[24] = tested on: Staphylococcus epidermidis 174B; assay: MIC vs. Staphylococcus epidermidis 174B; format: cell-based; design: unit not given beside the values; conditions: Table 2a
Description: as §2

[25] = tested on: Streptococcus uberis 167I; assay: MIC vs. Streptococcus uberis 167I; format: cell-based; design: unit not given beside the values; conditions: Table 2a
Description: as §2

[26] = approximately 25 mg/5 mL dose per half, 2 consecutive milkings 12 hours apart

O=C(COc1c(F)c(F)c(F)c(F)c1F)NC1C(=O)N2C(C(=O)O)=C(Cl)CSC12 (centres unmarked) [Compound 1]
MIC vs. Pasteurella multocida 10,102 (bovine) [1]: 0.5 | MIC vs. S. aureus F1C [2]: 0.5 | MIC vs. Streptococcus dysgalactiae [3]: 0.125 | MIC vs. S. aureus 174 C [4]: 0.5 | MIC vs. Pasteurella haemolytica 114F (bovine) [5]: 4 | MIC vs. S. aureus ATCC 29213 [6]: 0.5 | MIC vs. Pasteurella haemolytica 128K (bovine) ([7]; Table 3, incubated at 37° C. overnight): 4 | MIC vs. S. aureus 10092 [8]: 0.25 | MIC vs. Pasteurella multocida ATCC 12945 [9]: 0.125 | MIC vs. Streptococcus uberis 166 L [10]: 0.25 | MIC vs. Streptococcus uberis 150 L [11]: 0.25 | MIC vs. Pasteurella multocida 1051 (swine) [12]: 0.5 | MIC vs. Streptococcus agalactiae 150 B [13]: 0.125 | MIC vs. Escherichia coli [14]: >128 | % Bacteriologic Cures ([15]; dosing was 100 mg/5 mL dose): 75* % | MIC vs. Salmonella typhimurium [16]: >128 | MIC vs. Pasteurella haemolytica 129R (bovine) [17]: 4 | MIC vs. Pasteurella multocida 108E (bovine) [18]: 0.5

O=C(Cc1c(F)c(F)c(F)c(F)c1F)NC1C(=O)N2C(C(=O)O)=C(Cl)CSC12 (centres unmarked) [Compound 4]
MIC vs. S. aureus F1C [2]: 1 | MIC vs. Streptococcus dysgalactiae [3]: 0.0312 | MIC vs. S. aureus 174 C [4]: 1 | MIC vs. S. aureus ATCC 29213 [6]: 1 | MIC vs. S. aureus 10092 [8]: 0.5 | MIC vs. Streptococcus uberis 166 L [10]: 0.0156 | MIC vs. Streptococcus uberis 150 L [11]: 0.5 | MIC vs. Streptococcus agalactiae 150 B [13]: 0.5

O=C(COc1c(F)cc(F)cc1F)NC1C(=O)N2C(C(=O)O)=C(Cl)CSC12 (centres unmarked) [Compound 5]
MIC vs. Staphylococcus aureus 168H [19]: 2 | MIC vs. Staphylococcus aureus 170C [20]: 4 | MIC vs. Streptococcus agalactiae 150G [21]: 1 | MIC against Pasteurella haemolytica Strain 128K [7]: 16 | MIC vs. Staphylococcus aureus 10,092 [8]: 1 | % Bacteriologic Cures [15, 26]: 100% | MIC vs. Streptococcus faecalis [22]: 16 | MIC vs. Streptococcus dysgalactiae 152B [23]: 0.5 | MIC vs. Staphylococcus epidermidis 174B [24]: 1 | MIC vs. Streptococcus uberis 167I [25]: 16

O=C(COc1cc(F)cc(F)c1)NC1C(=O)N2C(C(=O)O)=C(Cl)CSC12 (centres unmarked) [Compound 6]
MIC vs. Staphylococcus aureus 168H [19]: 2 | MIC vs. Staphylococcus aureus 170C [20]: 4 | MIC vs. Streptococcus agalactiae 150G [21]: 0.5 | MIC against Pasteurella haemolytica Strain 128K [7]: 4 | MIC vs. Staphylococcus aureus 10,092 [8]: 0.5 | % Bacteriologic Cures [15, 26]: 75% | MIC vs. Streptococcus faecalis [22]: 32 | MIC vs. Streptococcus dysgalactiae 152B [23]: 0.25 | MIC vs. Staphylococcus epidermidis 174B [24]: 0.5 | MIC vs. Streptococcus uberis 167I [25]: 32

O=C(COc1c(F)c(F)c(F)c(F)c1F)NC1C(=O)N2C(C(=O)O)=C(Cl)CCC12 (centres unmarked) [Compound 7]
MIC vs. Staphylococcus aureus 168H [19]: 16 | MIC vs. Staphylococcus aureus 170C [20]: 1 | MIC vs. Streptococcus agalactiae 150G [21]: 2 | MIC against Pasteurella haemolytica Strain 128K [7]: 32 | MIC vs. Staphylococcus aureus 10,092 [8]: 4 | % Bacteriologic Cures [15, 26]: 13% | MIC vs. Streptococcus faecalis [22]: >128 | MIC vs. Streptococcus dysgalactiae 152B [23]: 2 | MIC vs. Staphylococcus epidermidis 174B [24]: 2 | MIC vs. Streptococcus uberis 167I [25]: 128

O=C(COc1ccc(OC(F)(F)F)cc1)NC1C(=O)N2C(C(=O)O)=C(Cl)CSC12 (centres unmarked) [Compound 8]
MIC vs. Staphylococcus aureus 168H [19]: 1 | MIC vs. Staphylococcus aureus 170C [20]: <0.125 | MIC vs. Streptococcus agalactiae 150G [21]: 1 | MIC against Pasteurella haemolytica Strain 128K [7]: 32 | MIC vs. Staphylococcus aureus 10,092 [8]: 1 | % Bacteriologic Cures [15, 26]: 50% | MIC vs. Streptococcus faecalis [22]: 64 | MIC vs. Streptococcus dysgalactiae 152B [23]: 0.5 | MIC vs. Staphylococcus epidermidis 174B [24]: 1 | MIC vs. Streptococcus uberis 167I [25]: 128

O=C(CSc1c(F)c(F)c(F)c(F)c1F)NC1C(=O)N2C(C(=O)O)=C(Cl)CSC12 (centres unmarked) [Compound 9]
MIC vs. Staphylococcus aureus 168H [19]: 0.5 | MIC vs. Staphylococcus aureus 170C [20]: 0.5 | MIC vs. Streptococcus agalactiae 150G [21]: 0.5 | MIC against Pasteurella haemolytica Strain 128K [7]: 4 | MIC vs. Staphylococcus aureus 10,092 [8]: 0.5 | % Bacteriologic Cures [15, 26]: 63% | MIC vs. Streptococcus faecalis [22]: 8 | MIC vs. Streptococcus dysgalactiae 152B [23]: 0.5 | MIC vs. Staphylococcus epidermidis 174B [24]: 0.5 | MIC vs. Streptococcus uberis 167I [25]: 4

O=C(COc1c(F)c(F)c(C(F)(F)F)c(F)c1F)NC1C(=O)N2C(C(=O)O)=C(Cl)CSC12 (centres unmarked) [Compound 10]
% Bacteriologic Cures [15, 26]: 57%
